Data as given in PubChem BioAssay (NCI).
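Exposure lasted 48 hours, with cells grown in 96-well plates and compounds tested at five concentrations. Here, GI50 denotes the concentration required for 50% inhibition of growth. TGI: concentration producing complete growth inhibition.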

Key:
Experiment in all cases: NCI tumour cell line growth inhibition, 48 h
OVCAR-8 ovarian = tested on: OVCAR-8 ovarian
MDA-MB-435 = tested on: MDA-MB-435
RXF 393 renal = tested on: RXF 393 renal
NCI-H522 lung = tested on: NCI-H522 lung
COLO 205 colon = tested on: COLO 205 colon
HOP-92 NSCLC = tested on: HOP-92 NSCLC
A549 NSCLC = tested on: A549 NSCLC
SF-268 CNS = tested on: SF-268 CNS
SK-MEL-28 melanoma = tested on: SK-MEL-28 melanoma
SK-MEL-2 melanoma = tested on: SK-MEL-2 melanoma

| SMILES | GI50 (OVCAR-8 ovarian) [µM] | TGI (OVCAR-8 ovarian) [µM] | GI50 (MDA-MB-435) [µM] | TGI (MDA-MB-435) [µM] | GI50 (RXF 393 renal) [µM] | TGI (RXF 393 renal) [µM] | GI50 (NCI-H522 lung) [µM] | TGI (NCI-H522 lung) [µM] | GI50 (COLO 205 colon) [µM] | TGI (COLO 205 colon) [µM] | GI50 (HOP-92 NSCLC) [µM] | TGI (HOP-92 NSCLC) [µM] | GI50 (A549 NSCLC) [µM] | TGI (A549 NSCLC) [µM] | GI50 (SF-268 CNS) [µM] | TGI (SF-268 CNS) [µM] | GI50 (SK-MEL-28 melanoma) [µM] | TGI (SK-MEL-28 melanoma) [µM] | GI50 (SK-MEL-2 melanoma) [µM] | TGI (SK-MEL-2 melanoma) [µM] |
| --- | --- | --- | --- | --- | --- | --- | --- | --- | --- | --- | --- | --- | --- | --- | --- | --- | --- | --- | --- | --- |
| CN1C(=O)[C@@H](CC2CCCC2)N(C2CCCC2)c2nc(Nc3cc(Cl)c(O)c(Cl)c3)ncc21 | 28.4 | > 100 | 27.8 | > 100 | 13.5 | 52 | 10.8 | > 100 | 23 | 56.1 | 13.6 | 66.7 | 22.1 | > 100 | 33 | > 100 | 22.6 | > 100 |  |  |
| COc1ccc(-c2cc(-c3ccc(Cl)cc3)nc(SCCCC(=O)NO)n2)cc1OC | 0.486 | > 21 | 1.42 | 3.12 | 0.417 | 1.66 | 1.3 | 4.05 | 1.73 | 5.06 | 1.76 | 5.33 | 1.58 | 8.59 | 1.28 | 3.81 | 1.2 | 2.71 | 2.9 | 10.8 |
| Cc1c(Br)c(Br)c2c3c1nc(N1CCNCC1)n3CCC2 | 2.08 | 5.46 | 1.73 | 3.22 | 1.7 | 3.41 | 1.49 | 3.14 | 1.86 | 3.63 | 0.0744 | 1.12 | 1.87 | 4.01 | 2.12 | 4.78 | 1.79 | 3.39 | 1.95 | 4.06 |
| Cn1ccc(S(=O)(=O)N2CCC[C@H](Nc3nccc(-c4c(-c5cccc(O)c5)nc5occn45)n3)C2)n1 | 18.9 | > 100 | 0.329 | 29.3 | 4.47 | 18.4 | 13 | 36.4 | 0.0913 | 28.6 | 7.64 | 52.9 | 13.2 | 42.9 | 21.4 | > 100 | 0.0938 | 20.5 | 0.444 | 10.7 |
| CN(C)Cc1ccc(O)c(CN(C)C)n1 |  | > 100 |  | > 100 |  | > 100 |  | > 100 |  | > 100 |  | > 100 |  | > 100 |  | > 100 |  | > 100 |  | > 100 |
| CC1(C)CCC2(C(=O)O)C(O)CC3(C)C(=CCC4C5(C)CCC(OC6OCC(O)C(O)C6OC6OCC(O)C(O)C6OC6OCC(O)C(OC7OC(CO)C(O)C(O)C7O)C6O)C(C)(C)C5CCC43C)C2C1 (configuration not stated) |  | > 100 |  | 93 |  | 59.1 |  | 49.4 |  | > 100 |  | 82.7 |  | > 100 |  | 64 |  | > 100 |  | 76.3 |
| CCOC(=O)C(Cc1ccccc1)n1c(O)c(/C=N/c2ncc(Cc3ccc(Cl)cc3Cl)s2)sc1=S (configuration not stated) | 2.07 | > 100 | 3.38 | > 100 | 2.56 | 6.7 | 1.31 | 5.7 | 1.66 | 3.34 | 1.65 | 6.22 | 3.68 | > 100 | 2.42 | 64.8 | 2.61 | 26.4 | 1.31 | 5.68 |
| Cc1[nH]c(N)nc(=S)c1CCCNc1ccccc1 |  | > 100 |  | > 100 |  | > 100 |  | > 100 |  | 66.9 |  | > 100 |  | > 100 |  | > 100 |  | > 100 |  | > 100 |
| COC(=O)C1C(=O)C(C(=O)OC)C2CCC1N2C (configuration not stated) |  | > 100 |  | > 79.3 |  | > 100 |  | > 100 |  | > 100 |  | > 77.3 |  | > 100 |  | > 100 |  | > 100 |  | 63.5 |
| CC(=O)CCC[C@@H](C)[C@@H]1O[C@H]([C@@]2(C)CCC(=O)O2)CC2[C@H]1OC(=O)C21CC1 (some centres not stated) | > 100 | > 100 | > 100 | > 100 | > 100 | > 100 | > 100 | > 100 | > 100 | > 100 | > 100 | > 100 | > 100 | > 100 | > 100 | > 100 | > 100 | > 100 | > 100 | > 100 |
| C=C(CC)C(=O)c1ccc(OCC(=O)O)c(Cl)c1Cl |  | 37.2 |  | 32.3 |  | 34.2 |  | 29.6 |  | 33.1 |  | 25.2 |  | > 100 |  | 33.1 |  | 33.6 |  | 33.2 |
| N#CC(Cl)CS(=O)(=O)c1ccccc1 (configuration not stated) |  | 11.1 |  | 32.1 |  | 6.31 |  | 2.26 |  | 3.8 |  | 4.1 |  | 41.7 |  | 24.3 |  | 28 |  | 33 |
| CCN(CC)CCOc1ccc2c(-c3ccccc3)c(-c3ccc(OC)cc3)c(=O)oc2c1 | 13.1 | 29.1 | 3.3 | 10.6 | 3.23 | 13.7 | 4.92 | 18.5 | 1.85 | 3.72 | 2.47 | 10.7 | 7.76 | 22 | 8.4 | 21.7 | 1.96 | 4.38 |  |  |
| O=C(Nc1nc2ccc(OC(F)(F)F)cc2s1)c1ccc(F)cc1 | 4.22 | > 100 | 2.98 | > 100 | 2.68 | 13.7 | 3.14 | 11.4 | 2.11 | 4.11 | 3.91 | 8.35 | 3.51 | > 100 | 3.71 | > 100 | 3.6 | > 100 | 3.08 | 7.39 |
| c1ccc(C2=Nc3ccccc3N3CNN=C23)cc1 | > 100 | > 100 | > 100 | > 100 |  |  | > 100 | > 100 | > 100 | > 100 | 15 | 51.5 | > 100 | > 100 | > 100 | > 100 |  |  | > 100 | > 100 |
